Data: patent US4104306A, “12A-Deoxy chelocardin” (Abbott Laboratories, priority 1976, dated 1978)
Where a name gives a salt, the structure may show the parent alone.

How the values were obtained:
Type in all cases: cell-based
[1] = tested on: Diplococcus pneumoniae 6301; assay: tube dilution test; details: Streptococcus pneumoniae, broth with 20% horse serum, read-out: minimum inhibitory concentration (MIC)
Procedure: The antibacterial activity of the above material was tested in the usual fashion, using a two-fold, brain-heart infusion agar (BHI 10 ml/plate) dilution test with 12 different organisms. The following minimum inhibitory concentrations (MIC) were determined: | *tube dilution test; broth container with 20% horse serum

Escherichia coli Juhl = assay: two-fold brain-heart infusion agar dilution test; details: BHI agar dilution, 10 ml/plate, read-out: minimum inhibitory concentration (MIC)
Procedure: (§1) The antibacterial activity of the above material was tested in the usual fashion, using a two-fold, brain-heart infusion agar (BHI 10 ml/plate) dilution test with 12 different organisms. The following minimum inhibitory concentrations (MIC) were determined: […]

[2] = tested on: Streptococcus pyrogenes C203; assay: two-fold brain-heart infusion agar dilution test; details: BHI agar dilution, 10 ml/plate, read-out: minimum inhibitory concentration (MIC)
Procedure: as §1

Enterococcus 89 = assay: two-fold brain-heart infusion agar dilution test; details: BHI agar dilution, 10 ml/plate, read-out: minimum inhibitory concentration (MIC)
Procedure: as §1

[3] = tested on: Proteus vulgaris Abbott JJ; assay: two-fold brain-heart infusion agar dilution test; details: BHI agar dilution, 10 ml/plate, read-out: minimum inhibitory concentration (MIC)
Procedure: as §1

[4] = tested on: Pasteurella multocida 10544; assay: two-fold brain-heart infusion agar dilution test; details: BHI agar dilution, 10 ml/plate, read-out: minimum inhibitory concentration (MIC)
Procedure: as §1

[5] = tested on: Pseudomonas aeruginosa BMH #10; assay: two-fold brain-heart infusion agar dilution test; details: BHI agar dilution, 10 ml/plate, read-out: minimum inhibitory concentration (MIC)
Procedure: as §1

Proteus mirabilis Fin #9 = assay: two-fold brain-heart infusion agar dilution test; details: BHI agar dilution, 10 ml/plate, read-out: minimum inhibitory concentration (MIC)
Procedure: as §1

[6] = tested on: Salmonella typhimurium Ed. #9; assay: two-fold brain-heart infusion agar dilution test; details: Salmonella enterica, BHI agar dilution, 10 ml/plate, read-out: minimum inhibitory concentration (MIC)
Procedure: as §1

Staph. aureus Smith = assay: two-fold brain-heart infusion agar dilution test; details: Staphylococcus aureus, BHI agar dilution, 10 ml/plate, read-out: minimum inhibitory concentration (MIC)
Procedure: as §1

Staph. aureus 45 = assay: two-fold brain-heart infusion agar dilution test; details: Staphylococcus aureus, BHI agar dilution, 10 ml/plate, read-out: minimum inhibitory concentration (MIC)
Procedure: as §1

[7] = tested on: Klebsiella pneumoniae 8045; assay: two-fold brain-heart infusion agar dilution test; details: BHI agar dilution, 10 ml/plate, read-out: minimum inhibitory concentration (MIC)
Procedure: as §1

CC(=O)C1=C(O)C(N)C2Cc3c(c(O)c4c(O)c(C)ccc4c3C)C(O)=C2C1=O (stereo not drawn) [12a-deoxychelocardin hydrobromide]
MIC [1]: 25 µg/mL | MIC (Escherichia coli Juhl): 25 µg/mL | MIC [2]: 6.2 µg/mL | MIC (Enterococcus 89): 6.2 µg/mL | MIC [3]: 3.1 µg/mL | MIC [4]: 0.39 µg/mL | MIC [5]: 100 µg/mL | MIC (Proteus mirabilis Fin #9): 6.2 µg/mL | MIC [6]: 6.2 µg/mL | MIC (Staph. aureus Smith): 3.1 µg/mL | MIC (Staph. aureus 45): 3.1 µg/mL | MIC [7]: 6.2 µg/mL
